What was measured:
[1] = tested on: hepatic markers (ALB, AFP, CYP3A4, CYP7A1, PGC1a); experiment: Real-time PCR mRNA expression of hepatic markers in differentiated hESCs; format: cell-based, human; details: collagen coated plates with or without Matrigel overlay (FIG. 11)
Method: The effect of LFM-A13 on rifampicin-induced CYP3A4 activity and on mRNA expression of a variety of hepatic markers is also determined on the differentiated hESCs. […] In FIG. 11, ALB is albumin, AFP is alpha-fetoprotein, CYP3A4 is cytochrome p450 3A4, CYP7A1 is cytochrome p450 7A1, and PGC1a is […] (COL=collagen I coated plate; MOL=Matrigel overlay).

[2] = tested on: human embryonic stem cells (hESCs) derived hepatocytes; experiment: Immunostaining of hepatic markers in hESC derived hepatocytes; format: cell-based; details: Corning hepatocyte medium, 10 μM, 7 days, versus absence (FIG. 9)
Method: The effects of LFM-A13 on human embryonic stem cells (hESCs) derived hepatocytes are evaluated. Briefly, hESCs are committed to the hepatocyte lineage using methods known to those skilled in the art and then are cultured in Corning hepatocyte medium in the presence or absence of 10 μM LFM-A13. After 7 days, the stem cell derived hepatocytes are immunostained with primary antibodies to detect expression of hepatocyte proteins; (b) to test for the presence of albumin (ALB), a hepatic precursor marker; and (c) to test for the presence of multidrug resistance-associated protein 2 (MRP2), a member of the superfamily of ATP-binding cassette (ABC) transporters and a marker for hepatic function. Nuclei of cells are counterestained with 4′,6-diamidino-2-phenylindole dihydrochloride (DAPI) to visualize all cells (FIG. a). As depicted, hESCs cultured in the absence of LFM-A13 (left column) have low levels of hepatic markers (ALB and MRP2). In contrast, hESCs cultured in the presence of LFM-A13 (right column) have higher levels of hepatic markers (ALB and MRP2).

Polo-like kinase (PLK) = details: stated as known; cited from earlier work
BTK = BTK (Homo sapiens, UniProt Q06187); details: reported, U.S. Pat. No. 6,303,652; cited from earlier work
[3] = tested on: mRNA for drug metabolism enzymes and hepatic proteins; experiment: Relative mRNA levels by real-time PCR in primary human hepatocytes; format: cell-based; details: 10 μM
Method: The effects of LEF, LFM, and LFM-A13 on gene expression are tested. Briefly, primary human hepatocytes cultured on collagen I coated surface are incubated with Corning hepatocyte medium containing vehicle control, 10 μM LEF, 10 μM LFM, and 10 μM LFM-A13, respectively. At the end of 48-hour incubation, total RNA is isolated and relative mRNA levels are quantified using real-time PCR. The results are shown in FIG. 6, where CYP is cytochrome P450 enzyme, SULT is sulfotransferase, UGT is UDP-glucuronosyltransferase, ABC is ATP-binding cassette transporters, AHR is aryl hydrocarbon receptor, CAR is constitutive androstene receptor, and PXR is pregnenolone x-receptor.
The effect of LFMA-13 on levels of mRNA encoding a wider variety of drug metabolism enzymes and other proteins of primary human hepatocytes is tested. Briefly, primary human hepatocytes cultured on collagen I coated surface are incubated with Corning hepatocyte medium containing vehicle control and 10 μM LFM-A13, respectively. At the end of 48-hour incubation, total RNA is isolated and relative mRNA levels are quantified using real-time PCR. The results are shown in FIG. 7, where ABC is ATP-binding cassette transporters, CYP is cytochrome P450 enzyme, SLC is solute carrier transporter, SULT is sulfotransferase, UGT is UDP-glucuronosyltransferase, GST is glutathione S-transferase, AHR is aryl hydrocarbon receptor, FOXO is forkhead box receptors, HNF is hepatic nuclear factor, NCO is nuclear receptor coactivator, NR is nuclear receptor, PPARGC1A is peroxisome proliferator-activated receptor gamma coactivator 1-alpha, RXR is retinoid X receptor, and VDR is vitamin D receptor.

liver cells = experiment: Drug metabolism activity / global hepatic function of liver cells with other BTK inhibitors and PLK siRNA; format: cell-based
Excerpt: […] The broad enhancement of hepatic function seen with LFM-A13 is not observed with these structurally unrelated BTK inhibitors.

Chain of BTK (Q06187 whole entry, species assumed): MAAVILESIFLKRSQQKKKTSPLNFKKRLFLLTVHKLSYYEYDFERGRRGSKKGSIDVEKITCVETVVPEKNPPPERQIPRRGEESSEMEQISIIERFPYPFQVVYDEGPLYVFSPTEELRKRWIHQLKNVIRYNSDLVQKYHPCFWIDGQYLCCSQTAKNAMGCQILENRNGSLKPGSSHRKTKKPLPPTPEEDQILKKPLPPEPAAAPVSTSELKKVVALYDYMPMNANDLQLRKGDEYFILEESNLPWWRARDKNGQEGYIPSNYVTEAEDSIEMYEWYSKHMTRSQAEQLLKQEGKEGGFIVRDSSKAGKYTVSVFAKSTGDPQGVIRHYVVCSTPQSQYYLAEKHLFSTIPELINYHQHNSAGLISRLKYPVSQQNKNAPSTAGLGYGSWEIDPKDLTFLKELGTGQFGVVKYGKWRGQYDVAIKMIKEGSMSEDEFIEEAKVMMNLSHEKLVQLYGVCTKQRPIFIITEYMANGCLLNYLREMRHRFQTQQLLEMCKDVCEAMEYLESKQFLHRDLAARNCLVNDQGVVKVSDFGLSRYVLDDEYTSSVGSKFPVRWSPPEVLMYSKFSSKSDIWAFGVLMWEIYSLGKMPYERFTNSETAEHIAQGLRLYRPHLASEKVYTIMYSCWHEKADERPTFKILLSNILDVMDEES

SMILES	expression of hepatic markers (mRNA) [1]	level of hepatic marker MRP2, immunostaining [2]	level of hepatic marker albumin (ALB), immunostaining [2]	PLK inhibition (Polo-like kinase (PLK))	BTK inhibition (BTK)	AHR mRNA level ([3]; 48 h (FIG. 6))	CYP1A2 mRNA level ([3]; 48 h (FIG. 6))	CYP2B6 mRNA level ([3]; 48 h (FIG. 6))	CYP3A4 mRNA level ([3]; 48 h (FIG. 6))	UGT1A1 mRNA level ([3]; 48 h (FIG. 6))	mRNA levels of some of the ABC transporters ([3]; 48 h (FIG. 6))	mRNA levels of a wide variety of drug metabolism enzymes, including many CYPs ([3]; 48 h (FIG. 7))	broad enhancement of hepatic function / global hepatic enhancement (liver cells)
C/C(O)=C(/C#N)C(=O)Nc1cc(Br)ccc1Br [LFM-A13, α-Cyano-β-Hydroxy-β-Methyl-N-(2,5-Dibrobophenyl)Propenamide]	enhanced expression	higher levels	higher levels	Polo-like kinase (PLK) inhibitor	potent BTK inhibitor	greatly increased	greatly increased	greatly increased	greatly increased	greatly increased	greatly increased	increased levels	
CC1=C(O)C(=O)[C@@H]2O[C@@H]2C1=O [Terreic acid]													not observed
